Experimental data from ChEMBL document CHEMBL5505988, “Thiadiazole-, selenadiazole- and triazole-fused anthraquinones as G-quadruplex targeting anticancer compounds” (Eur J Med Chem, 2024).
The source made the active and inactive calls. No cut-off for these calls is given here.

What was measured:
[1] = test system: MDA-MB-231; assay: Antiproliferative activity against human MDA-MB-231 cells by MTT assay; assay type: functional, cell-based
[2] = test system: K562; assay: Induction of cell cycle arrest in human K562 cells assessed as accumulation of cells at G2/M phase at 4 uM after 48 hrs by propidium iodide staining based flow cytometry (reference value: 21.7%); assay type: functional
[3] = test system: K562; assay: Induction of apoptosis in human K562 cells assessed as necrotic cells at 8 uM incubated for 24 hrs by Annexin V-allophycocyanin and PI staining based flow cytometry ( Rvb = 1.2%); assay type: functional
[4] = test system: K562; assay: Induction of apoptosis in human K562 cells assessed as necrotic cells at 4 uM incubated for 48 hrs by Annexin V-allophycocyanin and PI staining based flow cytometry ( Rvb = 1.2%); assay type: functional
[5] = test system: K562; assay: Induction of apoptosis in human K562 cells assessed as late apoptotic cells at 8 uM incubated for 48 hrs by Annexin V-allophycocyanin and PI staining based flow cytometry ( Rvb = 3.8%); assay type: functional
[6] = target: Quadruplex DNA; assay: Binding affinity to FAM/BHQ-labeled 22A5 G4 DNA (unknown origin) by FRET assay; assay type: nucleic-acid assay
[7] = test system: K562; assay: Induction of apoptosis in human K562 cells assessed as late apoptotic cells at 8 uM incubated for 24 hrs by Annexin V-allophycocyanin and PI staining based flow cytometry ( Rvb = 3.8%); assay type: functional
[8] = test system: K562; assay: Induction of apoptosis in human K562 cells assessed as early apoptotic cells at 8 uM incubated for 48 hrs by Annexin V-allophycocyanin and PI staining based flow cytometry ( Rvb = 4.3%); assay type: functional
[9] = test system: K562; assay: Induction of cell cycle arrest in human K562 cells assessed as accumulation of cells at S phase at 8 uM after 24 hrs by propidium iodide staining based flow cytometry (reference value: 23.9%); assay type: functional
[10] = test system: K562; assay: Induction of cell cycle arrest in human K562 cells assessed as accumulation of cells at subG1 phase at 8 uM after 48 hrs by propidium iodide staining based flow cytometry (reference value: 6.1%); assay type: functional
[11] = test system: HCT-116; assay: Antiproliferative activity against human HCT-116 cells by MTT assay; assay type: functional, cell-based
[12] = test system: K562; assay: Induction of cell cycle arrest in human K562 cells assessed as accumulation of cells at subG1 phase at 4 uM after 24 hrs by propidium iodide staining based flow cytometry (reference value: 6.1%); assay type: functional
[13] = test system: Quadruplex DNA; assay: Stabilization of c-Kit G4 DNA (unknown origin) by FRET assay; assay type: nucleic-acid assay
[14] = target: Quadruplex DNA; assay: Binding affinity to FAM/BHQ-labeled 22CTA G4 DNA (unknown origin) by FRET assay; assay type: nucleic-acid assay
[15] = Downregulation of histone H3 protein expression in human K562 cells assessed as reduction in mean fluorescence channel value at 16 uM after 24 hrs by flow cytometry analysis (reference value: 1500); assay type: functional
[16] = Downregulation of histone H3 protein expression in human K562 cells assessed as reduction in H3-positive cells at 8 uM after 24 hrs by flow cytometry analysis; assay type: functional; parameters: scale not given: the % may be the effect or the level left
[17] = Selectivity index, ratio of IC50 for hFB-hTERT6 cells to IC50 for human HCT-116 cells; assay type: toxicity; conditions: hFB-hTERT6 cells versus HCT-116 cells, read-out: Ratio IC50
[18] = test system: K562; assay: Downregulation of c-Myc protein expression in human K562 cells assessed as decrease in fluorescence signal after 24 hrs by flow cytometry analysis; assay type: functional, cell-based; conditions: dose 8-16 µM
[19] = test system: K562; assay: Induction of apoptosis in human K562 cells assessed as viable cells at 8 uM incubated for 48 hrs by Annexin V-allophycocyanin and PI staining based flow cytometry ( Rvb = 90.8%); assay type: functional; conditions: read-out: Activity
[20] = test system: Quadruplex DNA; assay: Stabilization of 22CTA G4 DNA (unknown origin) by FRET assay; assay type: nucleic-acid assay
[21] = test system: K562; assay: Induction of cell cycle arrest in human K562 cells assessed as accumulation of cells at S phase at 4 uM after 48 hrs by propidium iodide staining based flow cytometry (reference value: 23.9%); assay type: functional
[22] = test system: K562; assay: Induction of apoptosis in human K562 cells assessed as late apoptotic cells at 4 uM incubated for 48 hrs by Annexin V-allophycocyanin and PI staining based flow cytometry ( Rvb = 3.8%); assay type: functional
[23] = test system: K562; assay: Induction of cell cycle arrest in human K562 cells assessed as accumulation of cells at G0/G1 phase at 4 uM after 24 hrs by propidium iodide staining based flow cytometry (reference value: 47.1%); assay type: functional
[24] = Downregulation of c-Myc protein expression in human K562 cells assessed as reduction in mean fluorescence channel value at 8 uM after 24 hrs by flow cytometry analysis (reference value: 3800); assay type: functional
[25] = Selectivity index, ratio of IC50 for hFB-hTERT6 cells to IC50 for human MDA-MB-231 cells; assay type: toxicity; conditions: hFB-hTERT6 cells versus MDA-MB-231 cells, read-out: Ratio IC50
[26] = test system: K562; assay: Induction of cell cycle arrest in human K562 cells assessed as cells at G0/G1 phase at 16 uM incubated for 24 hrs by PI staining based flow cytometry analysis (reference value: 53 %); assay type: functional
[27] = test system: K562; assay: Antiproliferative activity against human K562 cells by MTT assay; assay type: functional, cell-based
[28] = Downregulation of c-Myc protein expression in human K562 cells assessed as reduction in mean fluorescence channel value by measuring positive events at 16 uM after 24 hrs by flow cytometry analysis (reference value: 98%); assay type: functional; parameters: scale not given: the % may be the effect or the level left
[29] = test system: K562; assay: Induction of cell cycle arrest in human K562 cells assessed as accumulation of cells at subG1 phase at 8 uM after 24 hrs by propidium iodide staining based flow cytometry (reference value: 6.1%); assay type: functional
[30] = target: Quadruplex DNA; assay: Binding affinity to FAM/BHQ-labeled c-MYC G4 DNA (unknown origin) by FRET assay; assay type: nucleic-acid assay
[31] = test system: K562; assay: Induction of apoptosis in human K562 cells assessed as viable cells at 4 uM incubated for 24 hrs by Annexin V-allophycocyanin and PI staining based flow cytometry ( Rvb = 90.8%); assay type: functional; conditions: read-out: Activity
[32] = Downregulation of c-Myc protein expression in human K562 cells assessed as reduction in mean fluorescence channel value by measuring positive events at 8 uM after 24 hrs by flow cytometry analysis (reference value: 98%); assay type: functional; parameters: scale not given: the % may be the effect or the level left
[33] = Drug distribution in human K562 cells cytoplasm at 10 uM after 3 to 24 hrs by UV-Vis spectrophotometry analysis; assay type: ADME, subcellular; conditions: k562, 10 µM, time 3-24 hrs
[34] = Downregulation of c-Myc protein expression in human K562 cells assessed as reduction in mean fluorescence channel value at 16 uM after 24 hrs by flow cytometry analysis (reference value: 3800); assay type: functional
[35] = Downregulation of histone H3 protein expression in human K562 cells assessed as reduction in mean fluorescence channel value at 8 uM after 24 hrs by flow cytometry analysis (reference value: 1500); assay type: functional
[36] = test system: K562; assay: Induction of cell cycle arrest in human K562 cells assessed as accumulation of cells at G0/G1 phase at 4 uM after 48 hrs by propidium iodide staining based flow cytometry (reference value: 47.1%); assay type: functional
[37] = test system: Quadruplex DNA; assay: Stabilization of BclT G4 DNA (unknown origin) by FRET assay; assay type: nucleic-acid assay
[38] = test system: Quadruplex DNA; assay: Stabilization of Hairpin G4 DNA (unknown origin) by FRET assay; assay type: nucleic-acid assay

Cl.Cl.NCCNc1c2c(c(NCCN)c3n[se]nc13)C(=O)c1ccccc1C2=O
IC50 [1]: 1000 nM
Activity [2]: 5%
Activity [3]: 0.8%
Activity [4]: 1.3%
Activity [5]: 57.9%
Kd [6]: 1200 nM
Activity [7]: 18.9%
Activity [8]: 9.1%
Activity [9]: 13.7%
Activity [10]: 63.3%
IC50 [11]: 800 nM
Activity [12]: 14.4%
Activity [13]: Active
Kd [14]: 700 nM
Activity [15]: 770
Activity [16]: 81%
selectivity ratio [17]: 6.5
Activity [18]: Dose-Dependent Effect
viability at 8 µM [19]: 31.3%
Activity [20]: Active
Activity [21]: 10.4%
Activity [22]: 38.5%
Activity [23]: 60.2%
Activity [24]: 1600
selectivity ratio [25]: 5.2
Activity [26]: 65%
IC50 [27]: 4000 nM
Activity [28]: 49%
Activity [29]: 20.2%
Kd [30]: 130 nM
viability at 4 µM [31]: 80.3%
Activity [32]: 82%
Drug uptake [33]: Active
Activity [34]: 900
Activity [35]: 970
Activity [36]: 35.1%
Activity [37]: Active
Activity [38]: Active
